# Experimental data reported in ChEMBL document CHEMBL4627384, “l-Thyroxin and the Nonclassical Thyroid Hormone TETRAC Are Potent Activators of PPARγ” (J Med Chem, 2020).
# Calls of active or inactive are those of the source. The calls are words filed in the database; no cut-off is given here.
# Assays:
# [1] = target: Luciferin 4-monooxygenase (Photinus pyralis) (UniProt P08659); test: Activation of firefly luciferase expressed in HEK293T cells at 15 uM incubated for 14 to 16 hrs by reporter gene assay; type: cell-based; settings: HEK-293T
# HEK-293T [2] = test: Activation of renilla luciferase expressed in HEK293T cells at 15 uM incubated for 14 to 16 hrs by reporter gene assay; type: cell-based; settings: Renilla reniformis
# [3] = target: T1, Peroxisome proliferator-activated receptor gamma (Homo sapiens) (UniProt P37231); test: Agonist activity at PPARgamma in human HepG2 cells assessed as induction of CD36 mRNA expression at 30 uM incubated for 8 hrs in presence of PPARgamma antagonist GW9662 by qPCR analysis; type: cell-based
# T1 sequence (whole entry): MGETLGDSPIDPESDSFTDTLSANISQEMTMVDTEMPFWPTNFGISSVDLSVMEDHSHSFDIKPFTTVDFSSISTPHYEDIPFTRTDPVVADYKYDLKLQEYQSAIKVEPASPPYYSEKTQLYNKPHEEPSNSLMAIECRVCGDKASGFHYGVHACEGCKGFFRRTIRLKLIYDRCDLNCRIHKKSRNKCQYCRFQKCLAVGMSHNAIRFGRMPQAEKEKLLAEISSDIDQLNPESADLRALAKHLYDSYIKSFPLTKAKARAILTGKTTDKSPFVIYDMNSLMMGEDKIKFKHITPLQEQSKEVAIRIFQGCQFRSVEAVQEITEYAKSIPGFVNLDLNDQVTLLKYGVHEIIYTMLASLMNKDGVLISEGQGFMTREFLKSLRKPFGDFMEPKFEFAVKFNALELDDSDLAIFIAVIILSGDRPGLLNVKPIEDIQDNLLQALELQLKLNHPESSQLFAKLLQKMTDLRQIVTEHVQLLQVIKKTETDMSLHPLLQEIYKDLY
# [4] = target: T1, Peroxisome proliferator-activated receptor gamma (Homo sapiens); test: Agonist activity at recombinant human pFA-CMV fused PPARgamma LBD expressed in HEK293T cells transfected with pFR-luciferase plasmid and pRL-SV40 plasmid at 15 uM incubated for 14 to 16 hrs in presence of PPARgamma antagonist GW9662 by dual glo luciferase reporter gene assay; type: cell-based; settings: HEK-293T
# [5] = target: T1, Peroxisome proliferator-activated receptor gamma (Homo sapiens); test: Agonist activity at PPARgamma in human HepG2 cells without THRA knockdown assessed as induction of CD36 expression at 30 uM incubated for 8 hrs in by Western blot analysis; type: cell-based
# [6] = target: T1, Peroxisome proliferator-activated receptor gamma (Homo sapiens); test: Agonist activity at PPARgamma in human HepG2 cells with THRB knockdown assessed as induction of CD36 expression at 30 uM incubated for 8 hrs in by Western blot analysis; type: cell-based
# [7] = target: RXR alpha/PPAR gamma (Homo sapiens) (UniProt P37231+P19793); test: Agonist activity at recombinant human pFA-CMV fused PPARgamma LBD transfected in HEK293T cells/human pFA-CMV fused RXRalpha LBD transfected in HEK293T cells assessed as increase in reporter activation at 0.1 to 3 uM incubated for 14 to 16 hrs using […]:RXRalpha LBD at ratio of 4:1 to 1:1 by dual glo luciferase reporter gene assay relative to rosiglitazone; type: cell-based; settings: HEK-293T
# [8] = target: T1, Peroxisome proliferator-activated receptor gamma (Homo sapiens); test: Agonist activity at PPARgamma in human HepG2 cells with THRB knockdown assessed as induction of CD36 expression at 1 uM incubated for 8 hrs in by Western blot analysis; type: cell-based
# [9] = target: T2, Retinoic acid receptor RXR-alpha (Homo sapiens, UniProt P19793); test: Agonist activity at GFP RXRalpha LBD (unknown origin) assessed as biotin-labeled SRC-1 recruitment incubated for 2 hrs by HT-FRET assay
# T2 sequence (P19793 whole entry): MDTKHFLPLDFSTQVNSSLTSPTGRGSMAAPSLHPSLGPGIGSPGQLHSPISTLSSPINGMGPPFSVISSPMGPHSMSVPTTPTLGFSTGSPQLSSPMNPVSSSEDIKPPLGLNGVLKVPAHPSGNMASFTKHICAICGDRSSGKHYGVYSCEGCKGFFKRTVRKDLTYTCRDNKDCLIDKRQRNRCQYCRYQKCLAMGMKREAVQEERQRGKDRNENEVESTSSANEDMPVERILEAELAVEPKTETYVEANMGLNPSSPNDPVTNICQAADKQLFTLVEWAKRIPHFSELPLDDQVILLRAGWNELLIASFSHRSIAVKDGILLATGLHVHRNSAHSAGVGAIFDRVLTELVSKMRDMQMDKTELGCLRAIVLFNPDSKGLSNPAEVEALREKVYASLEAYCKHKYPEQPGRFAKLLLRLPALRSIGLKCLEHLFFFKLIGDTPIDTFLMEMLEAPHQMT
# [10] = target: T1, Peroxisome proliferator-activated receptor gamma (Homo sapiens); test: Agonist activity at PPARgamma in human HepG2 cells assessed as induction of CD36 mRNA expression at 1 uM incubated for 8 hrs in presence of PPARgamma antagonist GW9662 by qPCR analysis; type: cell-based
# [11] = target: T1, Peroxisome proliferator-activated receptor gamma (Homo sapiens); test: Agonist activity at PPARgamma in human HepG2 cells without THRA knockdown assessed as induction of CD36 expression at 1 uM incubated for 8 hrs in by Western blot analysis; type: cell-based
# [12] = target: Luciferin 4-monooxygenase (Photinus pyralis) (UniProt P08659); test: Activation of firefly luciferase expressed in HEK293T cells at 0.1 uM incubated for 14 to 16 hrs by reporter gene assay; type: cell-based; settings: HEK-293T
# [13] = target: T1, Peroxisome proliferator-activated receptor gamma (Homo sapiens); test: Agonist activity at PPARgamma in human HepG2 cells assessed as induction of CD36 mRNA expression at 0.03 to 1 uM incubated for 8 hrs by qPCR analysis; type: cell-based
# [14] = target: T1, Peroxisome proliferator-activated receptor gamma (Homo sapiens); test: Agonist activity at N-terminal GFP-fused PPARgamma LBD (unknown origin) assessed as biotin-labeled SRC-1 recruitment incubated for 2 hrs by HT-FRET assay relative to rosiglitazone
# [15] = target: T3, Peroxisome proliferator-activated receptor gamma (Mus musculus) (UniProt P37238); test: Agonist activity at PPARgamma in mouse 3T3L1 adipocytes assessed as induction of GLUT4 mRNA expression at 1 uM by qRT-PCR analysis; type: cell-based; settings: 3T3-L1
# T3 sequence (whole entry): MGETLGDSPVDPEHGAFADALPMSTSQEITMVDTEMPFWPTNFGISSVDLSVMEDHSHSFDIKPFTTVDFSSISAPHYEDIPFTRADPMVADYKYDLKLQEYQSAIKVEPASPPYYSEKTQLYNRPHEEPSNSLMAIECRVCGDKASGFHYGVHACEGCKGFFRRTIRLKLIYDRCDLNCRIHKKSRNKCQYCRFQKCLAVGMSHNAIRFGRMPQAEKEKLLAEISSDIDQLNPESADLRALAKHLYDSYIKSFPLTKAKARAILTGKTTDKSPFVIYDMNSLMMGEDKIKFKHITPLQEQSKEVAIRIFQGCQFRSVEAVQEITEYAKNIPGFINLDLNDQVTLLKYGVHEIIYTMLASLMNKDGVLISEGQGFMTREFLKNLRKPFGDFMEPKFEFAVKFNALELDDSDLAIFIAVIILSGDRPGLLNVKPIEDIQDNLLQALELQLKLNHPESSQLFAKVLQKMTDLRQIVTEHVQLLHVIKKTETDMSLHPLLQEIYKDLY
# Homo sapiens = species: Homo sapiens; test: Agonist activity at PPARgamma LBD (unknown origin)/GFP-tagged RXRalpha mutant (unknown origin) assessed as biotin-labeled CBP recruitment to […]:RXRalpha mutant fusion protein heterodimer incubated for 2 hrs by HT-FRET assay
# HEK-293T [16] = test: Activation of renilla luciferase expressed in HEK293T cells at 0.1 uM incubated for 14 to 16 hrs by reporter gene assay; type: cell-based; settings: Renilla reniformis
# Chain of Luciferin 4-monooxygenase (Photinus pyralis) (P08659 whole entry): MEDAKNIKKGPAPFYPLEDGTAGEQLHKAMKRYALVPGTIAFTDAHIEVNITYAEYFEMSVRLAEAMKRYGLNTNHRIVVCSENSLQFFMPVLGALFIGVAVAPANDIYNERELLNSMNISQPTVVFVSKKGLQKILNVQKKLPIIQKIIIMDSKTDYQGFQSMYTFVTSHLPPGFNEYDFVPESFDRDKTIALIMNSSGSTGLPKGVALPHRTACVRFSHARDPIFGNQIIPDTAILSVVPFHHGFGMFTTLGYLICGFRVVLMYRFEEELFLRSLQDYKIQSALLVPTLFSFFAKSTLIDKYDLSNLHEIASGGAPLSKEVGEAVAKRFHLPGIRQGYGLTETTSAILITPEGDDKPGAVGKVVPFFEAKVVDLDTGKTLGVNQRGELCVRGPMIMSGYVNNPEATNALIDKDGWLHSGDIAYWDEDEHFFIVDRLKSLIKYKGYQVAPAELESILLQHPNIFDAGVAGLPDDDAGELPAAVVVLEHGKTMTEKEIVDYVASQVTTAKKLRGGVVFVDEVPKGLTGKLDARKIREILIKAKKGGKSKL
Activity [1],Activity [3],Activity [4],Activity [5],Activity [6],Activity [7],Activity [8],EC50 [9],Activity [10],Activity [11],Activity [12],Activity [13],Activity [14],Activity [15],Activity (Homo sapiens),Structure (SMILES),Activity (HEK-293T [2]),Activity (HEK-293T [16])
inactive,inactive,inactive,Active,Active,–,–,–,–,–,–,–,–,–,–,N[C@@H](Cc1cc(I)c(Oc2cc(I)c(O)c(I)c2)c(I)c1)C(=O)O [LEVOTHYROXINE],inactive,–
–,–,–,–,–,Active,Active,4.6 µM,inactive,Active,inactive,Active,Active,Active,Active,O=C(O)Cc1cc(I)c(Oc2cc(I)c(O)c(I)c2)c(I)c1 [TETRAC],–,inactive
